Reference: patent US10202361B2, “Pyridazinones as herbicides” (E I DU PONT DE NEMOURS AND COMPANY, priority 2014, dated 2019)

Columns and labels:
Assay in all cases: Test D pre-/postemergence controlled growth environment herbicide test
Type in all cases: in vivo
Details in all cases: scale 0 to 100
[1] = test system: buckwheat, wild (wild buckwheat, Polygonum convolvulus)
Method in brief: (§1)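 Ratings come from visual comparison with untreated plants on a 0–100 scale, 0 meaning no effect. Test chemicals in surfactant-containing solvent were applied either to soil at planting (silt loam) or over foliage of 2–18 cm plants in peat-based medium, then held 14–21 d in a controlled growth environment.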

[2] = test system: downy bromegrass (Bromus tectorum)
Method in brief: as §1

[3] = test system: canarygrass (Phalaris minor)
Method in brief: as §1

[4] = test system: deadnettle (henbit deadnettle, Lamium amplexicaule)
Method in brief: as §1

[5] = test system: speedwell (bird's-eye speedwell, Veronica persica)
Method in brief: as §1

[6] = test system: chamomile (scentless chamomile, Matricaria inodora)
Method in brief: as §1

[7] = test system: barley, spring (spring barley, Hordeum vulgare)
Method in brief: as §1

[8] = test system: field poppy (Papaver rhoeas)
Method in brief: as §1

[9] = test system: radish, wild (wild radish, Raphanus raphanistrum)
Method in brief: as §1

[10] = test system: bluegrass (annual bluegrass, Poa annua)
Method in brief: as §1

[11] = test system: barley, winter (winter barley, Hordeum vulgare)
Method in brief: as §1

Structure (SMILES): Cc1cc(=O)n(-c2ccc(F)cc2)nc1Cc1ccnc(C(F)(F)F)c1 [Compound 1, 2-(4-fluorophenyl)-5-methyl-6-[[2-(trifluoromethyl)-4-pyridinyl]methyl]-3(2H)-pyridazinone]
- Plant response rating ([1]; Postemergence, 31 g ai/ha): 20
- Plant response rating ([1]; Postemergence, 62 g ai/ha): 20
- Plant response rating ([1]; Postemergence, 125 g ai/ha): 30
- Plant response rating ([1]; Postemergence, 250 g ai/ha): 40
- Plant response rating ([1]; Postemergence, 500 g ai/ha): 60
- Plant response rating ([1]; Preemergence, 31 g ai/ha): 0
- Plant response rating ([1]; Preemergence, 62 g ai/ha): 40
- Plant response rating ([1]; Preemergence, 125 g ai/ha): 70
- Plant response rating ([1]; Preemergence, 250 g ai/ha): 70
- Plant response rating ([1]; Preemergence, 500 g ai/ha): 70
- Plant response rating ([2]; Postemergence, 31 g ai/ha): 0
- Plant response rating ([2]; Postemergence, 62 g ai/ha): 0
- Plant response rating ([2]; Postemergence, 125 g ai/ha): 10
- Plant response rating ([2]; Postemergence, 250 g ai/ha): 15
- Plant response rating ([2]; Postemergence, 500 g ai/ha): 25
- Plant response rating ([2]; Preemergence, 31 g ai/ha): 0
- Plant response rating ([2]; Preemergence, 62 g ai/ha): 0
- Plant response rating ([2]; Preemergence, 125 g ai/ha): 20
- Plant response rating ([2]; Preemergence, 250 g ai/ha): 25
- Plant response rating ([2]; Preemergence, 500 g ai/ha): 25
- Plant response rating ([3]; Postemergence, 31 g ai/ha): 5
- Plant response rating ([3]; Postemergence, 62 g ai/ha): 10
- Plant response rating ([3]; Postemergence, 125 g ai/ha): 15
- Plant response rating ([3]; Postemergence, 250 g ai/ha): 20
- Plant response rating ([3]; Postemergence, 500 g ai/ha): 20
- Plant response rating ([3]; Preemergence, 31 g ai/ha): 0
- Plant response rating ([3]; Preemergence, 62 g ai/ha): 0
- Plant response rating ([3]; Preemergence, 125 g ai/ha): 5
- Plant response rating ([3]; Preemergence, 250 g ai/ha): 15
- Plant response rating ([3]; Preemergence, 500 g ai/ha): 30
- Plant response rating ([4]; Postemergence, 31 g ai/ha): 10
- Plant response rating ([4]; Postemergence, 62 g ai/ha): 25
- Plant response rating ([4]; Postemergence, 125 g ai/ha): 35
- Plant response rating ([4]; Postemergence, 250 g ai/ha): 50
- Plant response rating ([4]; Postemergence, 500 g ai/ha): 75
- Plant response rating ([4]; Preemergence, 31 g ai/ha): 20
- Plant response rating ([4]; Preemergence, 62 g ai/ha): 40
- Plant response rating ([4]; Preemergence, 125 g ai/ha): 100
- Plant response rating ([4]; Preemergence, 250 g ai/ha): 100
- Plant response rating ([4]; Preemergence, 500 g ai/ha): 100
- Plant response rating ([5]; Postemergence, 31 g ai/ha): 30
- Plant response rating ([5]; Postemergence, 62 g ai/ha): 80
- Plant response rating ([5]; Postemergence, 125 g ai/ha): 100
- Plant response rating ([5]; Postemergence, 250 g ai/ha): 40
- Plant response rating ([5]; Postemergence, 500 g ai/ha): 100
- Plant response rating ([5]; Preemergence, 31 g ai/ha): 100
- Plant response rating ([5]; Preemergence, 62 g ai/ha): 100
- Plant response rating ([5]; Preemergence, 125 g ai/ha): 100
- Plant response rating ([5]; Preemergence, 250 g ai/ha): 100
- Plant response rating ([5]; Preemergence, 500 g ai/ha): 100
- Plant response rating ([6]; Postemergence, 31 g ai/ha): 30
- Plant response rating ([6]; Postemergence, 62 g ai/ha): 30
- Plant response rating ([6]; Postemergence, 125 g ai/ha): 30
- Plant response rating ([6]; Postemergence, 250 g ai/ha): 60
- Plant response rating ([6]; Postemergence, 500 g ai/ha): 50
- Plant response rating ([6]; Preemergence, 125 g ai/ha): 70
- Plant response rating ([6]; Preemergence, 250 g ai/ha): 90
- Plant response rating ([6]; Preemergence, 500 g ai/ha): 100
- Plant response rating ([7]; Postemergence, 31 g ai/ha): 0
- Plant response rating ([7]; Postemergence, 62 g ai/ha): 0
- Plant response rating ([7]; Postemergence, 125 g ai/ha): 5
- Plant response rating ([7]; Postemergence, 250 g ai/ha): 10
- Plant response rating ([7]; Postemergence, 500 g ai/ha): 10
- Plant response rating ([7]; Preemergence, 31 g ai/ha): 0
- Plant response rating ([7]; Preemergence, 62 g ai/ha): 5
- Plant response rating ([7]; Preemergence, 125 g ai/ha): 5
- Plant response rating ([7]; Preemergence, 250 g ai/ha): 30
- Plant response rating ([7]; Preemergence, 500 g ai/ha): 70
- Plant response rating ([8]; Postemergence, 31 g ai/ha): 30
- Plant response rating ([8]; Postemergence, 62 g ai/ha): 60
- Plant response rating ([8]; Postemergence, 125 g ai/ha): 60
- Plant response rating ([8]; Postemergence, 250 g ai/ha): 80
- Plant response rating ([8]; Postemergence, 500 g ai/ha): 85
- Plant response rating ([8]; Preemergence, 31 g ai/ha): 50
- Plant response rating ([8]; Preemergence, 62 g ai/ha): 95
- Plant response rating ([8]; Preemergence, 125 g ai/ha): 95
- Plant response rating ([8]; Preemergence, 250 g ai/ha): 100
- Plant response rating ([8]; Preemergence, 500 g ai/ha): 100
- Plant response rating ([9]; Postemergence, 31 g ai/ha): 10
- Plant response rating ([9]; Postemergence, 62 g ai/ha): 25
- Plant response rating ([9]; Postemergence, 125 g ai/ha): 35
- Plant response rating ([9]; Postemergence, 250 g ai/ha): 50
- Plant response rating ([9]; Postemergence, 500 g ai/ha): 90
- Plant response rating ([9]; Preemergence, 62 g ai/ha): 75
- Plant response rating ([9]; Preemergence, 125 g ai/ha): 60
- Plant response rating ([9]; Preemergence, 250 g ai/ha): 100
- Plant response rating ([9]; Preemergence, 500 g ai/ha): 100
- Plant response rating ([10]; Postemergence, 31 g ai/ha): 5
- Plant response rating ([10]; Postemergence, 62 g ai/ha): 5
- Plant response rating ([10]; Postemergence, 125 g ai/ha): 10
- Plant response rating ([10]; Postemergence, 250 g ai/ha): 10
- Plant response rating ([10]; Postemergence, 500 g ai/ha): 10
- Plant response rating ([10]; Preemergence, 31 g ai/ha): 0
- Plant response rating ([10]; Preemergence, 62 g ai/ha): 0
- Plant response rating ([10]; Preemergence, 125 g ai/ha): 0
- Plant response rating ([10]; Preemergence, 250 g ai/ha): 15
- Plant response rating ([10]; Preemergence, 500 g ai/ha): 45
- Plant response rating ([11]; Postemergence, 31 g ai/ha): 0
- Plant response rating ([11]; Postemergence, 62 g ai/ha): 0
- Plant response rating ([11]; Postemergence, 125 g ai/ha): 0
- Plant response rating ([11]; Postemergence, 250 g ai/ha): 10
- Plant response rating ([11]; Postemergence, 500 g ai/ha): 15
- Plant response rating ([11]; Preemergence, 31 g ai/ha): 0
- Plant response rating ([11]; Preemergence, 62 g ai/ha): 5
- Plant response rating ([11]; Preemergence, 125 g ai/ha): 5
- Plant response rating ([11]; Preemergence, 250 g ai/ha): 40
- Plant response rating ([11]; Preemergence, 500 g ai/ha): 60
